Experimental data from ChEMBL document CHEMBL1148381, “Application of CoMFA and CoMSIA 3D-QSAR and docking studies in optimization of mercaptobenzenesulfonamides as HIV-1 integrase inhibitors” (J Med Chem, 2004).

What was measured:
[1] = target: T1, Human immunodeficiency virus type 1 integrase (Human immunodeficiency virus 1, UniProt Q7ZJM1); experiment: Inhibitory activity against 3' processing by HIV integrase
[2] = target: T1, Human immunodeficiency virus type 1 integrase; experiment: Inhibitory activity against DNA strand transfer by HIV integrase

T1 sequence (Q7ZJM1 whole entry): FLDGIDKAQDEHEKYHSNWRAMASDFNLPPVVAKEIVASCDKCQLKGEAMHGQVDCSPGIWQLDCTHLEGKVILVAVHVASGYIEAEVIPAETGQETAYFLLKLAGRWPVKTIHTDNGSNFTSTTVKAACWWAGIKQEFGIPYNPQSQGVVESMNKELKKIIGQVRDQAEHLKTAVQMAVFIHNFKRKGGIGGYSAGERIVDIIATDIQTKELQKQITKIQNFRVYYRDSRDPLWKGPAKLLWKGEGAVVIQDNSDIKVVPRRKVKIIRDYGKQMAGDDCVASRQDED

Compound	IC50 [1]	IC50 [2]
O=C(CC(Sc1[nH]cnc2ncnc1-2)Sc1[nH]cnc2ncnc1-2)Nc1ccc(S(=O)(=O)Nc2ccc(/N=N/c3ccccc3)cc2)cc1	141 µM	112 µM
CCN(c1ccccc1)c1nc(N)nc(NS(=O)(=O)c2cc(C)c(Cl)cc2S)n1	17.4 µM	24.5 µM
O=C(Nc1ccccc1)c1cc(S(=O)(=O)Nc2nncn2-c2ccc(F)cc2)c(S)cc1Cl	45.7 µM	50.1 µM
CC1N=NC(c2ccc(S(=O)(=O)NC3SC(=S)NC3=O)cc2)S1 (centres undefined)	24 µM	19.1 µM
O=C(Nc1ccc(Cl)cc1)c1cc(S(=O)(=O)Nc2nncn2-c2ccc(F)cc2)c(S)cc1Cl	37.2 µM	37.2 µM
NS(=O)(=O)c1ccc(/N=N/C2Sc3nc4ccccc4n3C2=O)cc1 (centres undefined)	209 µM	126 µM
O=S(=O)(Nc1nnc2c3ccccc3cnn12)c1ccc(Cl)cc1S	28.8 µM	38.9 µM
CC(=O)C(/N=N/c1ccc(S(=O)(=O)Nc2ccccn2)cc1)C(=O)Nc1ccccc1C (centres undefined)	66.1 µM	72.4 µM
CCCCn1cnnc1NS(=O)(=O)c1cc(C(=O)Nc2ccc(Cl)cc2)c(Cl)cc1S	36.3 µM	43.7 µM
CC1=NNC(=O)C1/N=N/c1ccc(S(=O)(=O)Nc2nccs2)cc1 (centres undefined)	70.8 µM	61.7 µM
Cc1cc2c(cc1Cl)SC(C1C(=O)NC(=O)NC1=O)NS2(=O)=O (centres undefined)	60.3 µM	60.3 µM
Cc1cc(S(=O)(=O)Nc2nnc3c4scc(C)c4ncn23)c(S)cc1Cl	9.33 µM	7.41 µM
Cc1cc(S(=O)(=O)Nc2nc(N)n(-c3ccccn3)n2)c(S)cc1Cl	14.5 µM	22.9 µM
CCOC(=O)C(C#N)C1NS(=O)(=O)c2cc(C)c(Cl)cc2S1 (centres undefined)	331 µM	112 µM
COc1cc(Nc2nnc(NS(=O)(=O)c3cc(C)c(Cl)cc3S)[nH]2)cc(OC)c1OC	15.5 µM	16.6 µM
CC1=NN(c2ccccc2)C(=O)C1/N=N/c1ccc(S(=O)(=O)Nc2scc(C)c2C)cc1 (centres undefined)	129 µM	107 µM
Cc1cc(S(=O)(=O)Nc2nnc3ccc4ccccc4n23)c(S)cc1Cl	12.9 µM	7.41 µM
Cc1cc(S(=O)(=O)Nc2nc(Nc3ccccc3)nn2C)c(S)cc1Cl	27.5 µM	15.8 µM
Cc1cc(S(=O)(=O)Nc2nc(N)nc(N(C)C)n2)c(S)cc1Cl	77.6 µM	41.7 µM
Cc1cc(S(=O)(=O)Nc2nc3ccccc3[nH]2)c(S)cc1Cl	38.9 µM	43.7 µM
Cc1ccc(NC(=O)c2cc(S(=O)(=O)Nc3nncn3Cc3ccccc3)c(S)cc2Cl)cc1	8.91 µM	7.94 µM
Cc1cc2nc3nc(N)nc(NS(=O)(=O)c4cc(C)c(Cl)cc4S)n3c2cc1C	5.5 µM	4.27 µM
Cc1ccc(Nc2n[nH]c(NS(=O)(=O)c3cc(C)c(Cl)cc3S)n2)cc1	22.4 µM	24 µM
O=C(Nc1ccccc1)c1cc(S(=O)(=O)Nc2nncn2-c2ccc(Cl)cc2)c(S)cc1Cl	6.03 µM	12 µM

Compound	IC50 [1]	IC50 [2]
Cc1ccc(-n2cnnc2NS(=O)(=O)c2cc(C(=O)Nc3ccccc3)c(Cl)cc2S)cc1	6.03 µM	10 µM
Cc1cc(S(=O)(=O)Nc2nnc3c4ccccc4ccn23)c(S)cc1Cl	13.2 µM	10.7 µM
Cc1cc(S(=O)(=O)Nc2nc3ccccc3nc2-c2ccc(Cl)cc2)c(S)cc1Cl	20 µM	12 µM
CCCCn1cnnc1NS(=O)(=O)c1cc(C(N)=O)c(Cl)cc1SCC(=O)O	417 µM	417 µM
Cc1ccc(NC(=O)c2cc(S(=O)(=O)Nc3nncn3CC(C)C)c(S)cc2Cl)cc1	75.9 µM	100 µM
CCCCn1cnnc1NS(=O)(=O)c1cc(C(=O)NCc2ccccc2)c(Cl)cc1S	89.1 µM	70.8 µM
Cc1cc(S(=O)(=O)Nc2n[nH]c(-c3ccc(Cl)cn3)n2)c(S)cc1Cl	8.91 µM	10.2 µM
CC(C)Cn1cnnc1NS(=O)(=O)c1cc(C(=O)Nc2ccc(Cl)cc2)c(Cl)cc1S	38 µM	39.8 µM
Cc1cc(S(=O)(=O)NC(=NN)NNc2cccc(C(F)(F)F)n2)c(S)cc1Cl	87.1 µM	100 µM
O=C1NC(=S)SC1NS(=O)(=O)c1ccc(-c2ncccn2)cc1 (centres undefined)	28.8 µM	14.1 µM
Cc1cc(S(=O)(=O)Nc2nnc(Nc3ccccc3)[nH]2)c(S)cc1Cl	16.2 µM	12.6 µM
CCCn1cnnc1NS(=O)(=O)c1cc(C(=O)Nc2ccc(C)cc2)c(Cl)cc1SCC(=O)O	43.7 µM	43.7 µM
COC(=O)CSc1cc(Cl)c(C)cc1S(=O)(=O)Nc1nnc(N)[nH]1	200 µM	
Cc1cc2c(cc1Cl)SC(C1C(=O)NC(=S)NC1=O)NS2(=O)=O (centres undefined)	60.3 µM	50.1 µM
Cc1cc(S(=O)(=O)NC2=NCCCN2)c(S)cc1Cl	148 µM	145 µM
Cc1cc(S(=O)(=O)Nc2nnc3cnc4ccccc4n23)c(S)cc1Cl	31.6 µM	8.32 µM
Cc1ccc(-n2cnnc2NS(=O)(=O)c2cc(C(=O)Nc3ccc(Cl)cc3)c(Cl)cc2S)cc1	3.98 µM	3.98 µM
CCCn1cnnc1NS(=O)(=O)c1cc(C(=O)Nc2ccc(C)cc2)c(Cl)cc1S	40.7 µM	39.8 µM
Cc1cc2c(cc1Cl)SC(C(C#N)C#N)NS2(=O)=O (centres undefined)	708 µM	603 µM
Cc1cc(S(=O)(=O)Nc2nc(Nc3ccc(Cl)cc3)nn2C)c(S)cc1Cl	16.2 µM	17.8 µM
CCCCn1cnnc1NS(=O)(=O)c1cc(C(=O)Nc2ccc(C)cc2)c(Cl)cc1S	60.3 µM	33.9 µM
Cc1cc(S(=O)(=O)Nc2nc3ccccc3nc2-c2cccc([N+](=O)[O-])c2)c(S)cc1Cl	15.1 µM	7.94 µM
Cc1cc2c(cc1Cl)SC(C(C#N)C(=O)c1ccccc1)NS2(=O)=O (centres undefined)	200 µM	112 µM
O=C(O)c1cc2ccccc2c(/N=N/c2ccc(S(=O)(=O)Nc3nccs3)cc2)c1O	21.4 µM	42.7 µM

Compound	IC50 [1]	IC50 [2]
CCC(C)n1cnnc1NS(=O)(=O)c1cc(C(=O)Nc2ccc(C)cc2)c(Cl)cc1S (centres undefined)	200 µM	112 µM
Cc1cc(S(=O)(=O)Nc2nc3ccccc3nc2-c2ccc(Br)cc2)c(S)cc1Cl	12.3 µM	7.94 µM
Cc1ccc(Nc2nc(NS(=O)(=O)c3cc(C)c(Cl)cc3S)n(C)n2)cc1	23.4 µM	19.1 µM
Cc1cc(C(F)(F)F)cc(-n2nc(NS(=O)(=O)c3cc(C)c(Cl)cc3S)nc2N)n1	9.33 µM	6.31 µM
Cc1cc(S(=O)(=O)Nc2nnc3cc(C(F)(F)F)cc(C)n23)c(S)cc1Cl	18.6 µM	11 µM
Cc1cnc(NS(=O)(=O)c2ccc(/N=N/c3cc4ccccc4cc3O)cc2)s1	38.9 µM	50.1 µM
Cc1cc(S(=O)(=O)Nc2nnc3c(C(F)(F)F)cc(Cl)cn23)c(S)cc1Cl	10.7 µM	24 µM
Cc1ccnc(NS(=O)(=O)c2ccc(/N=N/c3cc4ccccc4c(C(=O)O)c3O)cc2)n1	19.5 µM	32.4 µM
Cc1cc(S(=O)(=O)Nc2nnc3ccccn23)c(S)cc1Cl	123 µM	110 µM
O=S(=O)(Nc1ccccn1)c1ccc(/N=N/c2cnc(O)c(O)c2)cc1	60.3 µM	58.9 µM
Cc1cc(S(=O)(=O)Nc2nc(N)nc3nc4ccccc4n23)c(S)cc1Cl	9.77 µM	7.76 µM
Cc1cc(S(=O)(=O)Nc2nnc3c4c(C)csc4ncn23)c(S)cc1Cl	3.63 µM	3.47 µM
O=S(=O)(Nc1nccs1)c1ccc(/N=N/c2cnc(O)c(O)c2)cc1	22.9 µM	20.9 µM
COc1cccc(Nc2n[nH]c(NS(=O)(=O)c3cc(C)c(Cl)cc3S)n2)c1	6.31 µM	20.9 µM
CC(=O)Oc1cc(S(=O)(=O)Nc2nnc(Nc3ccc(C)cc3)[nH]2)c(S)cc1Cl	7.59 µM	10 µM
Cc1cc(S(=O)(=O)Nc2nc(N)n(-c3ccccc3)n2)c(S)cc1Cl	10.7 µM	13.2 µM
Cc1cc(S(=O)(=O)Nc2nnc3c(Cl)cc(C(F)(F)F)cn23)c(S)cc1Cl	17.8 µM	20.9 µM
O=S(=O)(Nc1nnc2n1-c1ccccc1CC2)c1ccc(Cl)cc1S	21.9 µM	19.5 µM
COc1ccc(Nc2n[nH]c(NS(=O)(=O)c3cc(C)c(Cl)cc3S)n2)cc1	15.5 µM	14.1 µM
Cc1cc(S(=O)(=O)NC(=NN)Nc2ccc(Cl)cc2)c(S)cc1Cl	3.55 µM	3.55 µM
O=S(=O)(Nc1nnc2c3ccccc3ccn12)c1ccc(F)cc1S	51.3 µM	47.9 µM
O=C(Nc1ccc(F)cc1)c1cc(S(=O)(=O)Nc2nncn2-c2ccc(F)cc2)c(S)cc1Cl	79.4 µM	37.2 µM
